In patent publication EP0557345B1, “1,3-BIS- 3-(MONO- OR POLY-HYDROXY)ACYLAMINO-5-(MONO- OR POLY-HYDROXYALKYL)AMINOCARBONYL-2,4,6-TRIIODO-BENZOYL-AMINO]-HYDROXY- OR HYDROXYALKYL-PROPANES, THEIR METHODS OF PREPARATION AND X-RAY CONTRAST MEDIA CONTAINING THEM” (DIBRA S.p.A., priority 1990, dated 1992):
Where two headings read alike, the source gives them in different places.

Columns and labels:
[1] = Osmolality of the solution; assay type: physicochemical; details: 37°C, 300 mgI/ml
[2] = Viscosity of the solution; assay type: physicochemical; details: 37°C, 300 mgI/ml
[3] = Elimination through urine and bile after administration; assay type: in vivo, rats; details: after 7 hours from the administration
Procedure: Elimination occurs mainly through urinary pathway and in less extent through the bile. After 7 hours from the administration, 76.7% of the administered dose was found in the urine and 3.5% in the bile.

[4] = tested on: mice; test: Acute toxicity, intravenous administration in mice; assay type: in vivo; details: 14 days of observation
[5] = tested on: rats; test: Acute toxicity, intracisternal administration in rats; assay type: in vivo; details: 7 days of observation
[6] = Plasma kinetics after intravenous administration in rats; assay type: in vivo; details: rat, 200 mgI/kg; for half-life: iv
Procedure: The apparent volume of distribution is 123.5 ml/kg showing that the product is distributed in plasma and the extracellular spaces.

[7] = Solubility in water; assay type: physicochemical

SMILES | Osmolality [1] [mosm/kg H₂O] | Viscosity [2] [mPa·s] | Solubility in H₂O ([7]; at 20°C) [% w/v] | also measured
CC(=O)N(CC(O)CN(C(C)=O)c1c(I)c(C(=O)NCC(O)CO)c(I)c(C(=O)NCC(O)CO)c1I)c1c(I)c(C(=O)NCC(O)CO)c(I)c(C(=O)NCC(O)CO)c1I (stereo not shown) [C, 1,3-bis-[N-[3,5-bis-(2,3-dihydroxy-propyl)aminocarbonyl-2,4,6-triiodo-phenyl]-acetylamino]-2-hydroxy-propane, reference compound] | 196 | 8.7 | – | –
C[C@H](O)C(=O)Nc1c(I)c(C(=O)NCC(O)CNC(=O)c2c(I)c(NC(=O)[C@H](C)O)c(I)c(C(=O)NC(CO)CO)c2I)c(I)c(C(=O)NC(CO)CO)c1I [Example 1, 1,3-bis-[3-(L-2-hydroxy-propionyl)amino-5-(1,3-dihydroxy-isopropyl)-aminocarbonyl-2,4,6-triiodo-benzoyl-amino]-2-hydroxy-propane] | 141 | 8.5 | – | administered dose found in the bile [3]: 3.5%; administered dose found in the urine [3]: 76.7%; LD₅₀ C.L. 95% [4]: > 15000 mgI/kg; LD₅₀ C.L. 95% [5]: >900 mgI/kg; Vd ([6]; read-out: apparent volume of distribution): 0.123 L/kg; clearance ([6]; read-out: total clearance): 7.9 mL/min/kg; half-life ([6]; read-out: half life for the distribution phase): 2.9 min; half-life ([6]; read-out: half life for the elimination phase): 22.9 min
C[C@H](O)C(=O)Nc1c(I)c(C(=O)NCC(O)CNC(=O)c2c(I)c(NC(=O)[C@H](C)O)c(I)c(C(=O)NC(CO)C(O)CO)c2I)c(I)c(C(=O)NC(CO)C(O)CO)c1I (stereo partly drawn) [Example 4, 1,3-bis-[3-(L-2-hydroxy-propionyl)amino-5-(1,3,4-tri-hydroxy-2-butyl)aminocarbonyl-2,4,6-triiodo-benzoyl-amino]-2-hydroxy-propane] | – | – | 100 | –
C[C@H](O)C(=O)Nc1c(I)c(C(=O)NCC(O)CO)c(I)c(C(=O)N(C)CC(O)CN(C)C(=O)c2c(I)c(NC(=O)[C@H](C)O)c(I)c(C(=O)NCC(O)CO)c2I)c1I (stereo partly drawn) [Example 8, 1,3-bis-[N-methyl-N-[3-(L-2-hydroxy-propionyl)amino-5-(2,3-dihydroxy-propyl)aminocarbonyl-2,4,6-triiodobenzoyl]amino]-2-hydroxy-propane] | – | – | > 100 | –
C[C@H](O)C(=O)Nc1c(I)c(C(=O)NCC(O)CNC(=O)c2c(I)c(NC(=O)CO)c(I)c(C(=O)NCC(O)CO)c2I)c(I)c(C(=O)NC(CO)CO)c1I (stereo partly drawn) [Example 10, 1-[3-(L-2-hydroxy-propionyl)amino-5-(1,3-dihydroxyisopropyl)aminocarbonyl-2,4,6-triiodo-benzoyl-amino]-3-[3-hydroxyacetylamino-5-(2,3-dihydroxy-propyl)aminocarbonyl-2,4,6-triiodo-benzoyl-amino]-2-hydroxy-propane] | 131 | 8.6 | – | –
C[C@H](O)C(=O)Nc1c(I)c(C(=O)NCC(O)CNC(=O)c2c(I)c(NC(=O)CO)c(I)c(C(=O)NC(CO)C(O)CO)c2I)c(I)c(C(=O)NC(CO)CO)c1I (stereo partly drawn) [Example 11, 1-[3-hydroxyacetylamino-5-(1,3,4-trihydroxy-2-butyl)aminocarbonyl-2,4,6-triiodo-benzoyl-amino]-3-[3-(L-2-hydroxy-propionyl)amino-5-(1,3-dihydroxy-isopropyl)aminocarbonyl-2,4,6-triiodo-benzoyl-amino]-2-hydroxypropane] | – | – | – | Solubility in H₂O ([7]; at 25°C): > 100 % w/v
O=C(CO)Nc1c(I)c(C(=O)NCC(O)CNC(=O)c2c(I)c(NC(=O)CO)c(I)c(C(=O)NC(CO)C(O)CO)c2I)c(I)c(C(=O)NC(CO)C(O)CO)c1I (stereo not shown) [Example 15, 1,3-bis-[3-hydroxyacetylamino-5-(1,3,4-trihydroxy-2-butyl)aminocarbonyl-2,4,6-triiodo-benzoyl-amino]-2-hydroxy-propane] | – | – | 100 | –
CN(CC(O)CN(C)C(=O)c1c(I)c(NC(=O)CO)c(I)c(C(=O)NC(CO)C(O)CO)c1I)C(=O)c1c(I)c(NC(=O)CO)c(I)c(C(=O)NC(CO)C(O)CO)c1I (stereo not shown) [Example 16, 1,3-bis-[N-methyl-N-[3-hydroxyacetylamino-5-(1,3,4-trihydroxy-2-butyl)aminocarbonyl-2,4,6-triiodo-benzoyl]-amino]-2-hydroxy-propane] | – | – | 100 | –
